What was measured:
[1] = system: osteoporosis; test: Activity on bones found by the inventors (general statement)
[2] = system: rats; test: Lifelong administration to rats (general statement on bone); format: in vivo, rat
Source text: One aspect of the present invention has been perfected based on the above findings. […] These findings are literally epochal in the light of the fact that the conventional pharmaceutical compositions for adjusting bone metabolism is found to be only capable of restoring bones having abnormality due to morbidity near to normality.

[3] = lifelong administration to rats

C=C1CC[C@H](O)C/C1=C/C=C1\CCC[C@]2(C)[C@@H]([C@H](C)CCC(O)C(C)(C)O)CC[C@@H]12 (stereo partly shown) [24,25-(OH)2 -D3, 24,25-dihydroxy cholecalciferol]
activity on osteoporosis [1]: activity of preventing osteoporosis | bone quality [2, 3]: without affecting the bone quality | bone volume [2, 3]: increasing bone volume | bone strength vs non-administered normal mammals ([2]; normal mammal, extension of the lifelong rat experiment): clearly surpassing the average bone strength of non-administered normal mammals

— patent US5001118A, “Method for preventing senescence and increasing bone mass” (priority 1986, dated 1991)
